The results in this text go back to PubChem BioAssay AID1645867 (Buhrlage Lab, Dana-Farber Cancer Institute and Novartis …, 2021).

The IC50 is the midpoint of a concentration-inhibition curve. One may read the pIC50 as the negative decadic logarithm of the IC50, by convention in mol/L.

pIC50: −log10 of the molar value. Activity calls are given as the source filed them. The rule behind the calls is not given here.

The assay deals with Ubiquitin carboxyl-terminal hydrolase isozyme L1 (Homo sapiens) (UniProt P09936). Kind of assay: biochemical concentration-response of UCH-L1 DUB inhibitors, hit verification (AID 1645867). The note with it: recombinant UCHL1 deubiquitinase activity assay.
Ubiquitin carboxyl-terminal hydrolase isozyme L1 (Homo sapiens), sequence (P09936 whole entry, looked up): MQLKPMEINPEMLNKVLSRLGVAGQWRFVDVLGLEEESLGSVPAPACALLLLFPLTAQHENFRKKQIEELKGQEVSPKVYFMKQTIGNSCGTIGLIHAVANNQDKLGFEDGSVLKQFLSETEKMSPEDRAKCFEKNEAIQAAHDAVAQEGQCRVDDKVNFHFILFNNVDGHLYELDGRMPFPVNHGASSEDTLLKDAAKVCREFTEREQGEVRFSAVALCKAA
For `Cc1ccc(C)c(NC(=O)Cn2cc(C(=O)C3CC3)c3ccccc32)c1`, the IC50 is > 25 µM (inactive).

On to `O=C1CC(c2nc3ccccc3n2CCOc2ccccc2)CN1Cc1ccccc1` (stereo not drawn), for which the IC50 is > 25 µM (inactive).

`COc1cccc(CNc2ccc(-c3nc(-c4ccccc4)no3)nn2)c1`: the IC50 was > 25 µM (inactive).

As to `COc1cc(C2CC(=O)Nc3nc(-c4ccccc4)[nH]c(=O)c32)cc(OC)c1O` (stereo not drawn), the IC50 was > 25 µM (inactive).

As to `COc1ccc(Nc2nnc(Cc3ccc(Cl)cc3)c(=O)[nH]2)cc1`, the IC50 is > 25 µM (inactive).

`Cc1nc(-c2ccccc2)n(Cc2ccc(F)cc2)c(=O)c1CCO`: the IC50 was > 25 µM (inactive).

On to `CN(C)[C@@H]1C(=O)C(C(N)=O)=C(O)[C@@]2(O)C(=O)C3=C(O)c4c(O)cccc4[C@@](C)(O)[C@H]3C[C@@H]12`, for which the IC50 was > 25 µM (inactive).

With `O=C(O)C1C(C(=O)Nc2ccccc2)C2(c3ccccc3)C(=O)C1(c1ccccc1)C(c1ccccc1)=C2c1ccccc1` (stereo not drawn), the IC50 was > 25 µM (inactive).

As to `CCN(CC)Cc1ccc(-c2nnc(-c3cnc4onc(C)c4c3)o2)o1`, the IC50 was > 25 µM (inactive).

With `O=C(Nc1ccc(NC(=O)c2ccccc2O)cc1)Nc1ccc(OCc2ccccc2)cc1`, the IC50 was > 25 µM (inactive).

Regarding `O=C(Nc1c(C(=O)N2CCCCCC2)oc2ccccc12)C1CCCCC1`, the IC50 was > 25 µM (inactive).

Turning to `O=C(Cc1c[nH]c2ccccc12)N1CCc2cc(-c3ccno3)ccc21`, the IC50 was > 25 µM (inactive).

In the case of `COC1=C(C2=C(OC)C(=O)c3cc4c(c(O)c3C2=O)C(=O)OC(C)C4)C(=O)c2c(cc3c(c2O)C(=O)OC(C)C3)C1=O` (stereo not drawn), the pIC50 was 4.92.

As for `Cc1ccc(N(CC(=O)N2CCCc3ccccc32)S(=O)(=O)c2ccc3c(c2)OCCO3)cc1`, the IC50 was > 25 µM (inactive).

In the case of `COc1c(C(=O)Nc2nnc(C3CC3)s2)csc1Cl`, the IC50 was > 25 µM (inactive).

For `NC(=O)C1(N2CCCCC2)CCN(CC(=O)Nc2cc(Cl)ccc2Cl)CC1`, the IC50 was > 25 µM (inactive).

In the case of `CC1O[C@@H](c2ccc3c(c2O)C(=O)C2=C(C3=O)[C@@]3(O)C(=O)C(O)[C@](C)(O)C[C@@]3(O)C=C2)CC[C@@H]1OC(=O)/C=C/C=C/C=C/[C@@H]1O[C@@](C)(C(=O)O)O[C@H]1C` (stereo partly drawn), the pIC50 was 5.34.

With `CCOc1ccc(-c2nnc(NC(=O)C3CCN(S(=O)(=O)c4ccc5c(c4)CCC5)CC3)o2)cc1`, the IC50 was > 25 µM (inactive).

As for `Cc1ccc(NC(=O)c2cc(-c3ccccn3)nc3c(Cl)cccc23)nc1`, the IC50 was > 25 µM (inactive).

Regarding `CCCCCC(O)c1c(O)cc2c(c1O)C(=O)c1c(O)cc(O)cc1C2=O` (stereo not drawn), the IC50 was > 25 µM (inactive).

With `CCOc1cccc(-c2noc(-c3nn(-c4ccccc4)ccc3=O)n2)c1`, the IC50 was > 25 µM (inactive).

Take `Cc1ccc(C2SCC(=O)Nc3c2c(=O)[nH]n3C2CCCCC2)cc1` (stereo not drawn): the IC50 was > 25 µM (inactive).

`CC(C)NC(=O)Cn1ccn2nc(-c3ccc(Cl)cc3)cc2c1=O`: the IC50 was > 25 µM (inactive).

For the compound `COc1cccc2cc(C(=O)Nc3nc(-c4ccncc4)cs3)oc12`, the IC50 was > 25 µM (inactive).

Turning to `O=C(CN1CC(=O)c2ccccc2S1(=O)=O)Nc1ccccc1`, the IC50 was > 25 µM (inactive).

`COc1ccc(OC)c2c(C)cc(N3CC(C)CC(C)C3)nc12` (stereo not drawn): the IC50 is > 25 µM (inactive).

Take `CCOc1ccc(CC(=O)Nc2ccc(-c3cn4cccnc4n3)cc2)cc1`: the IC50 was > 25 µM (inactive).

Consider `Cc1ccccc1NC(=O)Cc1csc2nc(-c3ccc(F)cc3)cn12`, for which the IC50 is > 25 µM (inactive).

As for `O=C(Nc1ccc(Cl)c(Cl)c1)c1cccc(N2CCCCS2(=O)=O)c1`, the IC50 was > 25 µM (inactive).

Take `COc1ccc(CC(=O)Nc2c(NCc3ccccc3)c3ccccc3oc2=O)cc1`: the IC50 is > 25 µM (inactive).

For `O=C(CSc1ccc(-c2cccc([N+](=O)[O-])c2)nn1)Nc1cccc(F)c1`, the IC50 is > 25 µM (inactive).

For `C=C1CCC2[C@](C)(CCC[C@]2(C)C(=O)OC)[C@H]1CCc1ccoc1/C=C/C(=O)O` (stereo partly drawn), the IC50 is > 25 µM (inactive).

As to `CC1=C(C)C(c2c(-c3ccc(C)cc3)[nH]c3ccccc23)N(C(C)(C)C)C1=O` (stereo not drawn), the IC50 was > 25 µM (inactive).

Take `O=C(NCCc1nc2ccccc2n1CCOc1ccccc1Cl)C1CCCCC1`: the IC50 is > 25 µM (inactive).

Consider `Cn1c(=O)c2ncnnc2n(C)c1=O`, for which the pIC50 was 4.79.

With `CC(C)Cc1ccc(-c2cc(-c3ccc(C(F)(F)F)cc3)c(C#N)c(=O)[nH]2)cc1`, the IC50 is > 25 µM (inactive).

Take `O=C(NCC(c1cccnc1)N1CCOCC1)C1CCCCC1` (stereo not drawn): the IC50 is > 25 µM (inactive).

Regarding `COc1cccc(C(CC(=O)Nc2ccc3c(c2)OCCO3)n2cccc2)c1` (stereo not drawn), the IC50 was > 25 µM (inactive).

Take `O=c1c(-c2nc(-c3ccncc3)no2)cccn1Cc1c(F)cccc1Cl`: the IC50 is > 25 µM (inactive).

`O=c1cc(Cc2ccccc2)nc2c(-c3ccccc3)c(COc3ccccc3)[nH]n12`: the IC50 was > 25 µM (inactive).

For the compound `O=c1c(O)c(-c2ccc(O)c(O)c2)oc2cc(O)cc(O)c12`, the pIC50 is 5.63.

`Cc1cc(C)c(NC(=O)Cn2c(SCc3cccc(F)c3)nc3cccnc32)c(C)c1`: the IC50 is > 25 µM (inactive).

For the compound `O=C(C1CCCC1)N1CCC(c2nc3c(nnn3Cc3ccccc3Cl)c(=O)[nH]2)CC1`, the IC50 was > 25 µM (inactive).

Regarding `CCC1OC(O)(C(C)C(O)C(C)C2OC(=O)/C(C)=C/C(C)=CC(C)C(O)C(C)C/C(C)=C/C=C/C2OC)CC(OC(=O)/C=C/C(=O)NC2=C(O)CCC2=O)C1C` (stereo not drawn), the IC50 is > 25 µM (inactive).

For `O=C(CN1CCOCC1)Nc1ccc(NC(=O)c2ccc(Cl)cc2)cc1`, the IC50 was > 25 µM (inactive).

On to `Cc1ccc(/C=C/C(=O)c2oc3ccc(F)cc3c2C)cc1`, for which the IC50 is > 25 µM (inactive).

Take `Cc1ccc(NC(=O)C2C3C=CC4(O3)C2C(=O)N(C2CCCCC2)C4C(=O)NC2CCCCC2)cc1C` (stereo not drawn): the IC50 is > 25 µM (inactive).

`O=C(NC1CC2(CCOCC2)Oc2ccccc21)c1cnccn1` (stereo not drawn): the IC50 is > 25 µM (inactive).

For `N#Cc1c(-c2ccc(Cl)cc2)ccn2nc(CCC(=O)O)nc12`, the IC50 was > 25 µM (inactive).

Consider `O=C(NCc1ccc(Br)cc1)c1cc(-c2cccnc2)n[nH]1`, for which the IC50 was > 25 µM (inactive).

Turning to `O=C1C=C(O)c2c(O)cccc2C1=O`, the IC50 was > 25 µM (inactive).

For `Cc1c(-c2nsc(NC(=O)c3ccc(Cl)cc3)n2)nnn1-c1ccccc1F`, the IC50 is > 25 µM (inactive).

With `O=C(Nc1ccccc1-c1nc2ccccc2[nH]1)c1sc2ccccc2c1Cl`, the IC50 is > 25 µM (inactive).

With `CC(C)=CCOC(C)(C)[C@H]1OC2CC[C@@]3(C)C(CCC4Cc5c([nH]c6ccccc56)[C@@]43C)C23OC3[C@@H]1O` (stereo partly drawn), the IC50 is > 25 µM (inactive).

With `COc1cc(O)cc2c1C(=O)OC(C)CCCCCCC2` (stereo not drawn), the IC50 was > 25 µM (inactive).

For `Cc1ccc(NC(=O)Cn2cc(C(=O)c3ccccc3)c(=O)c3cc(C)ccc32)cc1`, the IC50 was > 25 µM (inactive).

Turning to `Cc1ccc(C2CC(=O)c3cnc(NCC4CCCO4)nc3C2)cc1` (stereo not drawn), the IC50 is > 25 µM (inactive).

Regarding `CCOc1ccc(NS(=O)(=O)c2ccc(NC(=O)Nc3ccccc3)cc2)cc1`, the IC50 is > 25 µM (inactive).
